From ChEMBL document CHEMBL1201862, “PubChem BioAssay data set” (2004)
The source made the active and inactive calls. Rule as the data show it, for most assays here: actives have a measured EC50 and inactives only a lower limit.

Key:
[1] = inhibitors of firefly luciferase expression or activity, dose response, H4 neuroglioma cells, luminescence (AID 1990); type: functional, cell-based
[2] = Luminescence Cell-Based Dose Response HTS to Identify Inhibitors of 5'UTR Stem-Loop Driven Prion Protein mRNA Translation in H4 Neuroglioblastoma Cells. [Related pubchem assays: 1827 (Project Summary), 1813 (Primary HTS)]; type: functional
[3] = inhibitors of SNCA 5'UTR-driven reporter translation, confirmation, H4 neuroglioma cells, luminescence (AID 1988); type: functional, cell-based
Cytochrome P450 3A4 = Cytochrome P450 3A4 (Homo sapiens, UniProt P08684); conditions: Potency;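 also: confirmatory qHTS run detecting inhibitors and substrates of CYP3A4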
Chain of Cytochrome P450 3A4 (P08684 whole entry): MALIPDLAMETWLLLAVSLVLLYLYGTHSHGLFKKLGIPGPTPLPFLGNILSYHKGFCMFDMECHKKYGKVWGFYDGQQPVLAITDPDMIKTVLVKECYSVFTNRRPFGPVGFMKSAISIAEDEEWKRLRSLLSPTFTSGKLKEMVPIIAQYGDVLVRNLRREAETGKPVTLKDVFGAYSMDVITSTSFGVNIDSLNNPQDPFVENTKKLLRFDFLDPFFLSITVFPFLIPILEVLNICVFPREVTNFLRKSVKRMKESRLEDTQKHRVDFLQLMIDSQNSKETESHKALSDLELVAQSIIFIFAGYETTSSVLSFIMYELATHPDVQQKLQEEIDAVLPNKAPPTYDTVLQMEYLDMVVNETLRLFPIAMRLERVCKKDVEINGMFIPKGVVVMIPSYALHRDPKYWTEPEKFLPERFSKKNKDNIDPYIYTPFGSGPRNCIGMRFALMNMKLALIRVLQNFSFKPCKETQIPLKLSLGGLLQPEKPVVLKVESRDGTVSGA

[4] = target: T1, High affinity choline transporter 1 (Homo sapiens, UniProt Q9GZV3); assay: CHT inhibitors, dose response, cell-based, 5-point CRC, membrane potential dye (AID 504840); type: functional
T1 sequence (Q9GZV3 whole entry): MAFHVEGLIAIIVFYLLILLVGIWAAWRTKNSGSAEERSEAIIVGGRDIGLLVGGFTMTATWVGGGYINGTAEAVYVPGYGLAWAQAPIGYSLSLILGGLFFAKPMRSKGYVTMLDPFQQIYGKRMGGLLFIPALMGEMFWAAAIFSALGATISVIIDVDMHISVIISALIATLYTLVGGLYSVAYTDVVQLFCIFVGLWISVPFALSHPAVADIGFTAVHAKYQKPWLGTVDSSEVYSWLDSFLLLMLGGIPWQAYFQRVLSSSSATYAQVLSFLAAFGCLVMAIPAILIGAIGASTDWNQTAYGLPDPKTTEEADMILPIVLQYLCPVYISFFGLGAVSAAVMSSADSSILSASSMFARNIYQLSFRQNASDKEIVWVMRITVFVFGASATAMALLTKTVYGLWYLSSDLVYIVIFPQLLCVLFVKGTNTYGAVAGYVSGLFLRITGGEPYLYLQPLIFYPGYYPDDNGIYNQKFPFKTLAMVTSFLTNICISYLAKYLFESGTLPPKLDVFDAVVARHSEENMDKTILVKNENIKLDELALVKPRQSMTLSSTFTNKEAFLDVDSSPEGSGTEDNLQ

[5] = Luminescence Cell-Based Dose Confirmation HTS to Identify Inhibitors of Platelet Dense Granule Release. [Related pubchem assays: 1663 (Primary HTS), 1678 (Summary of Project)]; type: functional
[6] = target: Luciferin 4-monooxygenase (Photinus pyralis, UniProt P08659); assay: firefly luciferase enzyme inhibitors, dose response, biochemical, luminescence (AID 1891)
Chain of Luciferin 4-monooxygenase (P08659 whole entry): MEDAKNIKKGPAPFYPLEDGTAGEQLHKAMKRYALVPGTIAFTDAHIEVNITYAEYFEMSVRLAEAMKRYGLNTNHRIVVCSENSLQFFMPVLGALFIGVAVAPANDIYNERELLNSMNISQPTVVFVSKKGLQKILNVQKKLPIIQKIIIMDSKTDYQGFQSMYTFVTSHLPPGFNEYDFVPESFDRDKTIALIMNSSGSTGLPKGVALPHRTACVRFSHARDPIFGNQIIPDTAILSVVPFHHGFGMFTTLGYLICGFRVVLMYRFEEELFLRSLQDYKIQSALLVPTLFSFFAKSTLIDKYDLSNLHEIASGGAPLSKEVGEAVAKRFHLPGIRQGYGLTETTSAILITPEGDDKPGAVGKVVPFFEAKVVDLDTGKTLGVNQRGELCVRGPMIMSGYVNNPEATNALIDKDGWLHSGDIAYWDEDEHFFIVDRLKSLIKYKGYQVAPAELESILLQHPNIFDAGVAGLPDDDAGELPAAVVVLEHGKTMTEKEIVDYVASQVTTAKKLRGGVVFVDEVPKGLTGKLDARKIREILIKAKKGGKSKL

[7] = target: T2, Zinc finger protein mex-5 (Caenorhabditis elegans, UniProt Q9XUB2); assay: MEX-5/TCR-2 RNA interaction inhibitors, dose response, biochemical, C. elegans, fluorescence polarization (AID 1960)
T2 sequence (Q9XUB2 whole entry): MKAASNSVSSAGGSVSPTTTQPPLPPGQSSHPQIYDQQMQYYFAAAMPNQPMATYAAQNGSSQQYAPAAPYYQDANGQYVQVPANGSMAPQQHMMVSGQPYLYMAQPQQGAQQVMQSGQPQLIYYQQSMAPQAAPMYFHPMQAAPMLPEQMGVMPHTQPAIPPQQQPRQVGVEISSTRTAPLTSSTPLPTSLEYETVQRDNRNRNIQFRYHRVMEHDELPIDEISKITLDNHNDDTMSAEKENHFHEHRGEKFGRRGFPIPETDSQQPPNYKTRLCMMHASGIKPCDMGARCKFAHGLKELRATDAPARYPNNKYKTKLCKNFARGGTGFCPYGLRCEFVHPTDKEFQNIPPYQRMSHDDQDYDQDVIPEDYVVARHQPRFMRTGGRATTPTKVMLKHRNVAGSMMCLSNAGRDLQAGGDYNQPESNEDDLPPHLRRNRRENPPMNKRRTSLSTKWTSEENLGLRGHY

[8] = target: T3, RNA-binding protein pos-1 (Caenorhabditis elegans, UniProt G5EF15); assay: inhibitors of POS-1/mex-3 RNA binding, dose response, biochemical, fluorescence polarization (AID 1964);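 also: purified POS-1 fused to maltose binding protein made in E. coli; potency of compounds blocking POS-1 binding to fluorescent RNA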
T3 sequence (G5EF15 whole entry): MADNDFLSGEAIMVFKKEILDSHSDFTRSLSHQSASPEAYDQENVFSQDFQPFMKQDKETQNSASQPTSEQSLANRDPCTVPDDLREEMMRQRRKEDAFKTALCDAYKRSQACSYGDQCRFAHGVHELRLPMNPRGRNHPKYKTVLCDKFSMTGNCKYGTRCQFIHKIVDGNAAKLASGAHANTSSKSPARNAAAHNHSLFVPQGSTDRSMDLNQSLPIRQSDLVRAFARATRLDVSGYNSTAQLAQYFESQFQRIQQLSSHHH

Nonstructural protein 1 = Nonstructural protein 1 (Influenza A virus, UniProt Q194T2); type: functional, Influenza A virus (A/California/07/2009(H1N1))
Chain of Nonstructural protein 1 (Q194T2 whole entry): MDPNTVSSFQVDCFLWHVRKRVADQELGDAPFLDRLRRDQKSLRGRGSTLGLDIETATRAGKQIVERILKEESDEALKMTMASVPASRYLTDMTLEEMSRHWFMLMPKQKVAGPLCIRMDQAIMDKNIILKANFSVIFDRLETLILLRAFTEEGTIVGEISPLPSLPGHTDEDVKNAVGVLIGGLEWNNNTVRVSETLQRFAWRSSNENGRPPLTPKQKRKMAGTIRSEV

SMILES: CC(=O)N1c2ccc(S(=O)(=O)NCC3CCC(C(=O)N4CC(C)CC(C)C4)CC3)cc2CC1C (stereo not given)
- EC50 [1]: > 120 µM (not active)
- EC50 [2]: > 120 µM (not active)
- EC50 [3]: > 120 µM (not active)

SMILES: O=C(OCC1CO1)C1CCCCC1C(=O)OCC1CO1 (stereo not given)
- AC50 (Cytochrome P450 3A4): 25.1 µM (inconclusive)

SMILES: Cc1c(C(=O)OC(C)C)sc(NC(=O)c2cccnc2)c1C#N
- IC50 [4]: 1.82 µM (active)

SMILES: CCN1C(C)=C(C(=O)OC)C(c2ccccc2)N2C(=O)[C@](O)(C(=O)OC)CC(C#N)=C12 (stereo not given in full)
- AC50 (Cytochrome P450 3A4): 3.98 µM (inconclusive)

SMILES: COc1ccc(CCNC(=O)c2ccc3c(c2)SC2=NS(=O)(=O)CCN23)cc1
- EC50 [5]: > 112 µM (not active)
- EC50 [6]: > 112 µM (not active)

SMILES: CCCc1cc(NCC2CCCO2)n2c(nc3ccccc32)c1C#N (stereo not given)
- IC50 [4]: 8.03 µM (active)

SMILES: CC1CCCCC1NC(=O)Cn1nnc2ccccc2c1=O (stereo not given)
- EC50 [1]: > 120 µM (not active)
- EC50 [2]: > 120 µM (not active)
- EC50 [3]: > 120 µM (not active)

SMILES: CCOC(CNC(=O)CCc1c(C)nc2nc(C)nn2c1C)OCC
- EC50 [7]: > 300 µM (not active)
- EC50 [8]: > 300 µM (not active)

SMILES: Cc1cc(C)c2cc(C#N)c(N3CCCN(C(S)=NCCCN(C)C)CC3)nc2c1
- EC50 [1]: > 60 µM (not active)
- EC50 [2]: > 120 µM (not active)
- EC50 [3]: 9.29 µM (active)

SMILES: COC(=O)[C@@H]1C[C@H]2CC[C@H](O)C[C@H]2N1Cc1ccc(C(F)(F)F)cc1
- AC50 (Cytochrome P450 3A4): 12.6 µM (inconclusive)

SMILES: CCc1ccc(C(=O)COC(=O)CNC(=O)c2ccco2)cc1
- EC50 [5]: > 112 µM (not active)
- EC50 [6]: > 112 µM (not active)

SMILES: O=C(CCCn1nnc2ccccc2c1=O)N[C@H](C(=O)O)c1ccccc1
- EC50 [5]: > 112 µM (not active)
- EC50 [6]: > 112 µM (not active)

SMILES: O=C(O)C1=CC[C@@H](c2ccc(Cl)cc2)N(S(=O)(=O)c2ccc(Cl)cc2)[C@H]1c1ccc(F)cc1
- IC50 [4]: 13.2 µM (active)

SMILES: COc1ccc(CNC(=O)c2cc(S(=O)(=O)N3CCCC3)cn2C)cc1
- EC50 [5]: > 112 µM (not active)
- EC50 [6]: > 112 µM (not active)

SMILES: COc1ccc(NC(=O)c2cc([N+](=O)[O-])ccc2NC(=O)CNCc2ccccn2)c(OC)c1
- IC50 (Nonstructural protein 1): 4.45 µM (active)

SMILES: CCN1CCSc2ccc(C(=O)NCc3ccccc3C)cc21
- EC50 [5]: > 112 µM (not active)
- EC50 [6]: > 112 µM (not active)

SMILES: COc1ccc(NC(=O)c2ccc(NCCCN3CCOCC3)c([N+](=O)[O-])c2)cc1
- EC50 [7]: > 300 µM (not active)
- EC50 [8]: > 300 µM (not active)

SMILES: COC(=O)C(O)(c1cn(C)c2ccccc12)C(F)(F)F (stereo not given)
- EC50 [5]: > 112 µM (not active)
- EC50 [6]: > 112 µM (not active)

SMILES: c1ccc(CNc2nc3ccccc3n3cnnc23)cc1
- EC50 [1]: > 120 µM (not active)
- EC50 [2]: > 120 µM (not active)
- EC50 [3]: 22.2 µM (active)
